{"source": "patent US12168805B2", "about": "“Methods and reagents for detecting piperaquine-resistant plasmodium falciparum malaria” (priority 2016, dated 2024)", "key": {"[1]": {"tested_on": "culture-adapted P. falciparum parasite lines", "assay": "in-vitro Piperaquine Survival Assay (PSA) on culture-adapted parasites", "type": "cell-based, Plasmodium falciparum", "conditions": "for in-vitro PSA survival rate (%): 200 nM PPQ for 48 hours", "description": "(§1) Cryopreserved parasites were culture-adapted as described.^12 Susceptibility to PPQ was investigated using in-vitro PSA for culture-adapted parasites and ex-vivo PSA for fresh isolates. Survival rates were assessed microscopically and parasites with a survival rate ≥10% were considered PPQ-resistant.^7 msp1, msp2 and glurp polymorphisms were determined to distinguish recrudescent from new infections.^13 Sequencing of the K13-propeller domain was used to screen for ART-resistance.^1 Whole-genome sequencing was performed using Illumina paired-reads sequencing.^1 Data were integrated into the Whole-genome Data Manager (WDM) database^14 and exomes of PPQ-resistant and -sensitive lines were compared after excluding low-coverage positions (i.e., lower than 25% of the genome-wide mean coverage). Genes from highly variable multigene families (var, rifin, phist and stevor) were excluded.^1 CNVs and SNPs were investigated using PlasmoCNVScan and Phen2gen software (see below). 1+PfPM2 and Pfmdr1 copy number was determined by qPCR (see below). Steady-state PfPM2 mRNA levels were measured by RT-qPCR (see below) and PfPM2 protein expression by immunoblotting (see below).\nIn-vitro susceptibility to PPQ was investigated using the in-vitro or the ex-vivo PSA, which is based on exposing very early ring-stage parasites to 200 nM PPQ for 48 hours, washing away the drug, and assessing parasite growth after a further 24 hours of culture. Survival rates at the 72 hour time point were assessed microscopically by counting the proportion of viable parasites in exposed and non-exposed cultures that developed into second-generation rings or trophozoites with normal morphology. Parasites with a survival rate ≥10% were considered PPQ-resistant.^5"}, "[2]": {"tested_on": "freshly collected P. falciparum patient isolates", "assay": "ex-vivo Piperaquine Survival Assay (PSA) on fresh isolates", "type": "cell-based, Plasmodium falciparum", "description": "Blood samples were collected into acid-citrate-dextrose tubes (Becton-Dickinson, USA) before treatment and sent to Institut Pasteur in Cambodia within 24 hours. A sub-set of freshly collected samples was used to perform the ex-vivo PSA.^7 All samples were cryopreserved in glycerolyte. Red cell pellets were stored at −20° C. for molecular studies. Blood spots were prepared on day 0 and when applicable on the day of recrudescence.\nas §1, with “Genes from highly variable multigene families (var, rifin, phist and stevor) were excluded.^1 CNVs and SNPs were investigated using PlasmoCNVScan and Phen2gen software (see below).” left out, “Steady-state PfPM2 mRNA levels were measured by RT-qPCR (see below) and PfPM2 protein expression by immunoblotting (see below).” left out"}}}
{"smiles": "Clc1ccc2c(N3CCN(CCCN4CCN(c5ccnc6cc(Cl)ccc56)CC4)CC3)ccnc2c1", "note": "[PPQ, piperaquine]", "values": [{"measurement": "in-vitro susceptibility to PPQ", "setting": "[1]; 3D7 reference line", "value": "Sensitive (sensitive if survival rates were <10%)"}, {"measurement": "in-vitro PSA survival rate (%)", "setting": "[1]; 3D7 reference line, survival at 72 hour", "value": 0.1, "unit": "%"}, {"measurement": "In-vitro PSA survival rate, PSA mean value", "setting": "[1]; one sequence with DNA expansion type 3", "value": 39.3, "unit": "%"}, {"measurement": "in-vitro susceptibility to PPQ", "setting": "[1]; parasite line 6218", "value": "Resistant (resistant if survival rates were ≥10%)"}, {"measurement": "in-vitro PSA survival rate (%)", "setting": "[1]; parasite line 6218 (2012, Battambang)", "value": 40.8, "unit": "%"}, {"measurement": "in-vitro susceptibility to PPQ", "setting": "[1]; parasite line 6219", "value": "Resistant (resistant if survival rates were ≥10%)"}, {"measurement": "in-vitro PSA survival rate (%)", "setting": "[1]; parasite line 6219 (2012, Battambang)", "value": 58.6, "unit": "%"}, {"measurement": "in-vitro susceptibility to PPQ", "setting": "[1]; parasite line 6224", "value": "Resistant (resistant if survival rates were ≥10%)"}, {"measurement": "in-vitro PSA survival rate (%)", "setting": "[1]; parasite line 6224 (2012, Pursat)", "value": 61.4, "unit": "%"}, {"measurement": "in-vitro susceptibility to PPQ", "setting": "[1]; parasite line 6229", "value": "Resistant (resistant if survival rates were ≥10%)"}, {"measurement": "in-vitro PSA survival rate (%)", "setting": "[1]; parasite line 6229 (2012, Battambang)", "value": 46.6, "unit": "%"}, {"measurement": "in-vitro susceptibility to PPQ", "setting": "[1]; parasite line 6237", "value": "Sensitive (sensitive if survival rates were <10%)"}, {"measurement": "in-vitro PSA survival rate (%)", "setting": "[1]; parasite line 6237 (2012, Kampong Thom)", "value": 0.8, "unit": "%"}, {"measurement": "in-vitro susceptibility to PPQ", "setting": "[1]; parasite line 6246", "value": "Resistant (resistant if survival rates were ≥10%)"}, {"measurement": "in-vitro PSA survival rate (%)", "setting": "[1]; parasite line 6246 (2012, Kampong Speu)", "value": 36.9, "unit": "%"}, {"measurement": "in-vitro susceptibility to PPQ", "setting": "[1]; parasite line 6261", "value": "Resistant (resistant if survival rates were ≥10%)"}, {"measurement": "in-vitro PSA survival rate (%)", "setting": "[1]; parasite line 6261 (2012, Pursat)", "value": 70.5, "unit": "%"}, {"measurement": "in-vitro susceptibility to PPQ", "setting": "[1]; parasite line 6267", "value": "Sensitive (sensitive if survival rates were <10%)"}, {"measurement": "in-vitro PSA survival rate (%)", "setting": "[1]; parasite line 6267 (2012, Kampong Speu)", "value": 0.5, "unit": "%"}, {"measurement": "in-vitro susceptibility to PPQ", "setting": "[1]; parasite line 6272", "value": "Resistant (resistant if survival rates were ≥10%)"}, {"measurement": "in-vitro PSA survival rate (%)", "setting": "[1]; parasite line 6272 (2012, Battambang)", "value": 40.0, "unit": "%"}, {"measurement": "in-vitro susceptibility to PPQ", "setting": "[1]; parasite line 6273", "value": "Sensitive (sensitive if survival rates were <10%)"}, {"measurement": "in-vitro PSA survival rate (%)", "setting": "[1]; parasite line 6273 (2012, Kampong Speu)", "value": 0.2, "unit": "%"}, {"measurement": "in-vitro susceptibility to PPQ", "setting": "[1]; parasite line 6280", "value": "Resistant (resistant if survival rates were ≥10%)"}, {"measurement": "in-vitro PSA survival rate (%)", "setting": "[1]; parasite line 6280 (2012, Battambang)", "value": 28.9, "unit": "%"}, {"measurement": "in-vitro susceptibility to PPQ", "setting": "[1]; parasite line 6293", "value": "Resistant (resistant if survival rates were ≥10%)"}, {"measurement": "in-vitro PSA survival rate (%)", "setting": "[1]; parasite line 6293 (2012, Battambang)", "value": 39.3, "unit": "%"}, {"measurement": "in-vitro susceptibility to PPQ", "setting": "[1]; parasite line 6302", "value": "Resistant (resistant if survival rates were ≥10%)"}, {"measurement": "in-vitro PSA survival rate (%)", "setting": "[1]; parasite line 6302 (2012, Battambang)", "value": 42.5, "unit": "%"}, {"measurement": "in-vitro susceptibility to PPQ", "setting": "[1]; parasite line 6320", "value": "Resistant (resistant if survival rates were ≥10%)"}, {"measurement": "in-vitro PSA survival rate (%)", "setting": "[1]; parasite line 6320 (2012, Battambang)", "value": 62.1, "unit": "%"}, {"measurement": "in-vitro susceptibility to PPQ", "setting": "[1]; parasite line 6337", "value": "Sensitive (sensitive if survival rates were <10%)"}, {"measurement": "in-vitro PSA survival rate (%)", "setting": "[1]; parasite line 6337 (2012, Kampong Speu)", "value": 0.4, "unit": "%"}, {"measurement": "in-vitro susceptibility to PPQ", "setting": "[1]; parasite line 6341", "value": "Resistant (resistant if survival rates were ≥10%)"}, {"measurement": "in-vitro PSA survival rate (%)", "setting": "[1]; parasite line 6341 (2012, Pursat)", "value": 25.8, "unit": "%"}, {"measurement": "in-vitro susceptibility to PPQ", "setting": "[1]; parasite line 6349", "value": "Sensitive (sensitive if survival rates were <10%)"}, {"measurement": "in-vitro PSA survival rate (%)", "setting": "[1]; parasite line 6349 (2012, Kampong Thom)", "value": 0.6, "unit": "%"}, {"measurement": "in-vitro susceptibility to PPQ", "setting": "[1]; parasite line 6365", "value": "Resistant (resistant if survival rates were ≥10%)"}, {"measurement": "in-vitro PSA survival rate (%)", "setting": "[1]; parasite line 6365 (2012, Battambang)", "value": 51.8, "unit": "%"}, {"measurement": "in-vitro susceptibility to PPQ", "setting": "[1]; parasite line 6369", "value": "Sensitive (sensitive if survival rates were <10%)"}, {"measurement": "in-vitro PSA survival rate (%)", "setting": "[1]; parasite line 6369 (2012, Pursat)", "value": 6.4, "unit": "%"}, {"measurement": "in-vitro susceptibility to PPQ", "setting": "[1]; parasite line 6391", "value": "Resistant (resistant if survival rates were ≥10%)"}, {"measurement": "in-vitro PSA survival rate (%)", "setting": "[1]; parasite line 6391 (2012, Battambang)", "value": 39.4, "unit": "%"}, {"measurement": "in-vitro susceptibility to PPQ", "setting": "[1]; parasite line 6394", "value": "Resistant (resistant if survival rates were ≥10%)"}, {"measurement": "in-vitro PSA survival rate (%)", "setting": "[1]; parasite line 6394 (2012, Battambang)", "value": 56.7, "unit": "%"}, {"measurement": "in-vitro susceptibility to PPQ", "setting": "[1]; parasite line 6395", "value": "Resistant (resistant if survival rates were ≥10%)"}, {"measurement": "in-vitro PSA survival rate (%)", "setting": "[1]; parasite line 6395 (2012, Battambang)", "value": 19.2, "unit": "%"}, {"measurement": "in-vitro susceptibility to PPQ", "setting": "[1]; parasite line 6403", "value": "Sensitive (sensitive if survival rates were <10%)"}, {"measurement": "in-vitro PSA survival rate (%)", "setting": "[1]; parasite line 6403 (2012, Pursat)", "value": 0.5, "unit": "%"}, {"measurement": "in-vitro susceptibility to PPQ", "setting": "[1]; parasite line 6408", "value": "Resistant (resistant if survival rates were ≥10%)"}, {"measurement": "in-vitro PSA survival rate (%)", "setting": "[1]; parasite line 6408 (2012, Battambang)", "value": 58.7, "unit": "%"}, {"measurement": "in-vitro susceptibility to PPQ", "setting": "[1]; parasite line 6410", "value": "Sensitive (sensitive if survival rates were <10%)"}, {"measurement": "in-vitro PSA survival rate (%)", "setting": "[1]; parasite line 6410 (2012, Battambang)", "value": 6.0, "unit": "%"}, {"measurement": "in-vitro susceptibility to PPQ", "setting": "[1]; parasite line 6411", "value": "Resistant (resistant if survival rates were ≥10%)"}, {"measurement": "in-vitro PSA survival rate (%)", "setting": "[1]; parasite line 6411 (2012, Battambang)", "value": 71.6, "unit": "%"}, {"measurement": "in-vitro susceptibility to PPQ", "setting": "[1]; parasite line 6427", "value": "Resistant (resistant if survival rates were ≥10%)"}, {"measurement": "in-vitro PSA survival rate (%)", "setting": "[1]; parasite line 6427 (2012, Battambang)", "value": 77.4, "unit": "%"}, {"measurement": "in-vitro susceptibility to PPQ", "setting": "[1]; parasite line 6429", "value": "Resistant (resistant if survival rates were ≥10%)"}, {"measurement": "in-vitro PSA survival rate (%)", "setting": "[1]; parasite line 6429 (2012, Pursat)", "value": 51.8, "unit": "%"}, {"measurement": "in-vitro susceptibility to PPQ", "setting": "[1]; parasite line 6430", "value": "Resistant (resistant if survival rates were ≥10%)"}, {"measurement": "in-vitro PSA survival rate (%)", "setting": "[1]; parasite line 6430 (2012, Battambang)", "value": 51.3, "unit": "%"}, {"measurement": "in-vitro susceptibility to PPQ", "setting": "[1]; parasite line 6431", "value": "Resistant (resistant if survival rates were ≥10%)"}, {"measurement": "in-vitro PSA survival rate (%)", "setting": "[1]; parasite line 6431 (2012, Battambang)", "value": 61.5, "unit": "%"}, {"measurement": "in-vitro susceptibility to PPQ", "setting": "[1]; parasite line 6443", "value": "Resistant (resistant if survival rates were ≥10%)"}, {"measurement": "in-vitro PSA survival rate (%)", "setting": "[1]; parasite line 6443 (2012, Battambang)", "value": 49.6, "unit": "%"}, {"measurement": "In-vitro PSA survival rate, PSA mean value", "setting": "[1]; parasites harboring DNA expansion type 1 (N=13)", "value": 44.8, "unit": "%"}, {"measurement": "In-vitro PSA survival rate, PSA mean value", "setting": "[1]; parasites harboring DNA expansion type 2 (N=6)", "value": 64.9, "unit": "%"}, {"measurement": "In-vitro PSA survival rate, PSA mean value", "setting": "[1]; parasites harboring DNA expansion type 4 (N=2)", "value": 16.2, "unit": "%"}, {"measurement": "median ex-vivo PSA survival rate", "setting": "[2]; isolates with unamplified (single copy) PfPM2", "value": 0.004, "unit": "%"}, {"measurement": "median ex-vivo PSA survival rate", "setting": "[2]; isolates with ≥2 PfPM2 copies", "value": 51.7, "unit": "%"}]}
